In PMC549391 (Nucleic Acids Research, 2005):

Biological target: T1, ribonuclease III (RNase III) (Escherichia coli, UniProt P0A7Y0)
T1 sequence (P0A7Y0 1-226): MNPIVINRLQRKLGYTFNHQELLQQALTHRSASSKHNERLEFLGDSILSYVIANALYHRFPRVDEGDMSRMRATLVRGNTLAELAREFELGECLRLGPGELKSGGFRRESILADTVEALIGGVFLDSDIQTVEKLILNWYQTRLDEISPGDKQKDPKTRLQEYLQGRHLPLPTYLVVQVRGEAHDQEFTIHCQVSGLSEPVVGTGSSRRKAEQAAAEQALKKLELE
Assay: cleavage of […]-labeled R1.[…] RNA by purified RNase III, gel assay, […] Mg2+
Type: biochemical

## O=C1Cc2ccccc2C(=O)N1O [compound 1, 2-hydroxy-4H-isoquinoline-1,3-dione]
  IC50: 14 ± 2 µM
